# Reference: patent US12655127B2, “Fused ring compound as Wee-1 inhibitor” (WIGEN BIOMEDICINE TECHNOLOGY (SHANGHAI) CO., LTD., priority 2021, dated 2026)
# Biological target: recombinant protein Wee-1 (Homo sapiens, UniProt P30291)
# Test: Inhibition of enzymatic activity of recombinant protein Wee-1 (HTRF)
# Type: biochemical
# Description: The inhibitory effect of the compounds on the enzyme activity of recombinant protein Wee-1 was determined by HTRF. The procedures are as follows:
# After DMSO or serially diluted compounds (up to 200 nM, 1:5 serially diluted) and recombinant proteins were co-incubated in a kinase buffer at 37° C. for 30 min Fluorescein-PolyGAT and ATP were added, and then the reaction was started by the addition of a substrate. After incubation at room temperature for 90 min, an antibody and a detection solution were added, and after further incubation at room temperature for 60 min, fluorescence values were detected (excitation wavelength: 340 nm, emission wavelengths: 495 and 520 nm). The 520 nm/495 nm fluorescence intensity ratio value was calculated, and compared with that of the DMSO group, and then the inhibition percentages and IC50 values of the compounds were calculated.
# Chain of recombinant protein Wee-1 (P30291 whole entry): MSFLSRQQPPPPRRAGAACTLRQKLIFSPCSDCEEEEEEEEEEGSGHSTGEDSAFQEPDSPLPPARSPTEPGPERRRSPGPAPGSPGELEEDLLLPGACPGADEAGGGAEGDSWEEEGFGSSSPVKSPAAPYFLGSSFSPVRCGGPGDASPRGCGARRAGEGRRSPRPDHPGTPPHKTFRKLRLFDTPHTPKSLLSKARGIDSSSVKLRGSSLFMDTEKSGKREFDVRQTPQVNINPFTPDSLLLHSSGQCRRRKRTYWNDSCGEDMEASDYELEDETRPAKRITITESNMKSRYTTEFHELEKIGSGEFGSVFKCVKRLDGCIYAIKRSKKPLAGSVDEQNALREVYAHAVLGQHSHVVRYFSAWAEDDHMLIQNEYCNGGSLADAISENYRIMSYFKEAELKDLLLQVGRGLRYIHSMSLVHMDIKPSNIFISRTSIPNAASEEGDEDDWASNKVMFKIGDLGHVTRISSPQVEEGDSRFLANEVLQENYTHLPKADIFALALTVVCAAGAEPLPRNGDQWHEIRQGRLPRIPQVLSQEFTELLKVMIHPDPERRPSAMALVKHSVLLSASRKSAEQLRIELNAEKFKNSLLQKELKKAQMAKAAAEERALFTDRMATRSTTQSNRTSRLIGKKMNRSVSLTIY
row,Structure (SMILES),IC50
1,CN1Cc2cc(Nc3ncc(C#N)c(-c4cn(C)c5c(N=S(C)(C)=O)cccc45)n3)cc3c2C(CCC3)C1 (stereo not drawn) [Compound 116],≤ 10 nM
2,CN1Cc2cc(Nc3ncc(C#N)c(Nc4cccc(N=S5(=O)CCCC5)n4)n3)cc3c2C(CCC3)C1 (stereo not drawn) [Compound 93],≤ 10 nM
3,CN1Cc2cc(Nc3ncc(C#N)c(Nc4cccc(N=S(C)(C)=O)n4)n3)cc3c2[C@](C)(CCCC3)C1 [Compound 60],≤ 10 nM
4,CN1CC2CCCc3cc(Nc4ncc(C#N)c(Nc5cccc(N=S(C)(C)=O)n5)n4)cc(c32)C1(C)C (stereo not drawn) [Compound 20],≤ 10 nM
5,COc1c(Nc2ncc(C#N)c(Nc3cccc(N=S(C)(C)=O)n3)n2)cc2c3c1CN(C)CC3CCC2 (stereo not drawn) [Compound 44],≤ 10 nM
6,CN1Cc2cc(Nc3ncc(C#N)c(Nc4cc(N=S(C)(C)=O)ccn4)n3)cc3c2C(CCC3)C1 (stereo not drawn) [Compound 104],≤ 10 nM
7,CCS(=O)(CC)=Nc1cccc(Nc2nc(Nc3cc4c5c(c3)CN(C)CC5CCC4)ncc2C#N)n1 (stereo not drawn) [Compound 91],≤ 10 nM
8,CN1C[C@@H]2CCCc3cc(Nc4ncc(C#N)c(Nc5cccc(N=S(C)(C)=O)n5)n4)cc(c32)C1(C)C [Compound 22],≤ 10 nM
9,CN1Cc2cc(Nc3ncc(C#N)c(Nc4cccc(N=S(C)(C)=O)n4)n3)cc3c2C(C)(CC3)C1 (stereo not drawn) [Compound 53],10 to 50 nM
10,CCN1Cc2cc(Nc3ncc(C#N)c(Nc4cccc(N=S(C)(C)=O)n4)n3)cc3c2C(CCC3)C1 (stereo not drawn) [Compound 7],≤ 10 nM
11,CN1Cc2cc(Nc3ncc(C#N)c(Nc4cccc(N=S(C)(C)=O)n4)n3)cc3c2C(CCC3)C12CC2 (stereo not drawn) [Compound 23],≤ 10 nM
12,CN1Cc2cc(Nc3ncc(C#N)c(Nc4cccc(N=S(C)(C)=O)n4)n3)cc3c2C(CC(O)C3)C1 (stereo not drawn) [Compound 291],≤ 10 nM
13,CS(C)(=O)=Nc1cccc(Nc2nc(Nc3cc4c5c(c3)CN(C3CC3)C[C@@H]5CCC4)ncc2C#N)n1 [Compound 15],≤ 10 nM
14,CN1Cc2cc(Nc3ncc(C#N)c(N4CCc5c(N=S(C)(C)=O)cccc54)n3)cc3c2C(CCC3)C1 (stereo not drawn) [Compound 114],≤ 10 nM
15,Cc1c(Nc2ncc(C#N)c(Nc3cccc(N=S(C)(C)=O)n3)n2)cc2c3c1CN(C)CC3CCC2 (stereo not drawn) [Compound 41],≤ 10 nM
16,[2H]C([2H])([2H])S(=O)(=Nc1cccc(Nc2nc(Nc3cc4c5c(c3)CN(C)CC5CCC4)ncc2C#N)n1)C([2H])([2H])[2H] (stereo not drawn) [Compound 136],≤ 10 nM
17,CN1Cc2cc(Nc3ncc(C#N)c(Nc4cccc(N=S(C)(C)=O)n4)n3)c(C3CC3)c3c2C(CCC3)C1 (stereo not drawn) [Compound 47],≤ 10 nM
18,CN1Cc2cc(Nc3ncc(C#N)c(Nc4cc5c(c(N=S(C)(C)=O)n4)CCC5)n3)cc3c2C(CCC3)C1 (stereo not drawn) [Compound 120],≤ 10 nM
19,CCN1Cc2cc(Nc3ncc(C#N)c(Nc4cccc(N=S(C)(C)=O)n4)n3)cc3c2[C@H](CCC3)C1 [Compound 8],≤ 10 nM
20,CS(C)(=O)=Nc1cccc(Nc2nc(Nc3cc4c5c(c3)CN(C3CC3)CC5CCC4)ncc2C#N)n1 (stereo not drawn) [Compound 13],≤ 10 nM
21,CN1Cc2cc(Nc3ncc(Br)c(Nc4cccc(N=S(C)(C)=O)n4)n3)cc3c2C(CCC3)C1 (stereo not drawn) [Compound 100],≤ 10 nM
22,CS(C)(=O)=Nc1cccc(Nc2nc(Nc3cc4c5c(c3)CN(C3CC3)C[C@H]5CCC4)ncc2C#N)n1 [Compound 14],≤ 10 nM

row,Structure (SMILES),IC50
1,CN1Cc2cc(Nc3ncc(C#N)c(Nc4cccc(N=S(C)(C)=O)n4)n3)cc3c2C(C1)OC3 (stereo not drawn) [Compound 72],≤ 10 nM
2,CN1Cc2cc(Nc3ncc(C#N)c(Nc4cccc(N=S(C)(C)=O)n4)n3)cc3c2C(CSCC3)C1 (stereo not drawn) [Compound 79],≤ 10 nM
3,[2H]c1ccc(Nc2nc(Nc3cc4c5c(c3)CN(C)CC5CCC4)ncc2C#N)nc1N=S(C)(C)=O (stereo not drawn) [Compound 135],≤ 10 nM
4,CCN1Cc2cc(Nc3ncc(C#N)c(Nc4cccc(N=S(C)(C)=O)n4)n3)cc3c2[C@@H](CCC3)C1 [Compound 9],≤ 10 nM
5,CN1Cc2cc(Nc3ncc(C#N)c(Nc4cccc(N=S(C)(C)=O)n4)n3)cc3c2C2(CCC3)CC12 (stereo not drawn) [Compound 125],≤ 10 nM
6,CN1Cc2cc(Nc3ncc(C#N)c(Nc4cccc(N=S(C)(C)=O)n4)n3)cc3c2C(C)(CCCC3)C1 (stereo not drawn) [Compound 59],≤ 10 nM
7,CN1Cc2cc(Nc3ncc(C#N)c(Nc4cccc(N=S(C)(C)=O)n4)n3)cc3c2[C@H](CCCC3)C1 [Compound 57],≤ 10 nM
8,CN1Cc2cc(Nc3ncc(C(F)(F)F)c(Nc4cccc(N=S(C)(C)=O)n4)n3)cc3c2C(CCC3)C1 (stereo not drawn) [Compound 94],≤ 10 nM
9,CN1Cc2cc(Nc3ncc(C#N)c(Nc4cccc(N=S(C)(C)=O)n4)n3)cc3c2C(C1)C(O)CC3 (stereo not drawn) [Compound 293],≤ 10 nM
10,CN1CC2CCCc3cc(Nc4ncc(C#N)c(Nc5cccc(N=S(C)(C)=O)n5)n4)cc(c32)C12CC2 (stereo not drawn) [Compound 19],≤ 10 nM
11,CN(C)C1Cc2cc(Nc3ncc(C#N)c(Nc4cccc(N=S(C)(C)=O)n4)n3)cc3c2C(CCC3)C1 (stereo not drawn) [Compound 89],≤ 10 nM
12,CN1Cc2cc(Nc3ncc(C#N)c(Nc4cccc(N=S(C)(C)=O)n4)n3)cc3c2C(C1)SCC3 (stereo not drawn) [Compound 69],≤ 10 nM
13,CN1Cc2cc(Nc3ncc(C#N)c(Nc4cccc(N=S(C)(C)=O)n4)n3)cc3c2C(CCOC3)C1 (stereo not drawn) [Compound 76],≤ 10 nM
14,CN1Cc2cc(Nc3ncc(C#N)c(Nc4cccc(N=S(C)(C)=O)n4)n3)cc3c2C(C1)C(F)(F)CC3 (stereo not drawn) [Compound 31],≤ 10 nM
15,CN1Cc2cc(Nc3ncc(C#N)c(Nc4ccnc(N=S(C)(C)=O)n4)n3)cc3c2C(CCC3)C1 (stereo not drawn) [Compound 106],≤ 10 nM
16,CN1Cc2cc(Nc3ncc(C#N)c(Nc4cccc(N=S(C)(C)=O)n4)n3)cc3c2C(CCCO3)C1 (stereo not drawn) [Compound 74],≤ 10 nM
17,CN1Cc2cc(Nc3ncc(C#N)c(Nc4cccc(N=S(C)(C)=O)n4)n3)cc3c2C(CC=CC3)C1 (stereo not drawn) [Compound 85],≤ 10 nM
18,CN1Cc2cc(Nc3ncc(C#N)c(Nc4cccc(N=S(C)(C)=O)n4)n3)cc3c2C(COC3)C1 (stereo not drawn) [Compound 66],≤ 10 nM
19,CN1Cc2cc(Nc3ncc(C#N)c(Nc4cccc(N=S(C)(C)=O)n4)n3)cc3c2C(CCC32CC2)C1 (stereo not drawn) [Compound 32],≤ 10 nM
20,CN1Cc2c3c(cc(Nc4ncc(C#N)c(Nc5cccc(N=S(C)(C)=O)n5)n4)c2C2CC2)CCCC3C1 (stereo not drawn) [Compound 42],≤ 10 nM
21,CN1Cc2cc(Nc3ncc(C#N)c(Nc4cccc(N=S(C)(C)=O)n4)n3)cc3c2C(CCN3)C1 (stereo not drawn) [Compound 132],≤ 10 nM
22,CS(C)(=O)=Nc1cccc(Nc2nc(Nc3cc4c5c(c3)CN(CCO)CC5CCC4)ncc2C#N)n1 (stereo not drawn) [Compound 16],≤ 10 nM

row,Structure (SMILES),IC50
1,"CN1Cc2cc(Nc3ncc(C#N)c(Nc4cccc(P(C)(C)=O)n4)n3)cc3c2[C@@H](CCC3)C1 (single isomer, unassigned) [Compound 139]",≤ 10 nM
2,CN1Cc2cc(Nc3ncc(C#N)c(Nc4ccnc(N=S(C)(C)=O)c4)n3)cc3c2C(CCC3)C1 (stereo not drawn) [Compound 102],≤ 10 nM
3,CC(=O)N1Cc2cc(Nc3ncc(C#N)c(Nc4cccc(N=S(C)(C)=O)n4)n3)cc3c2C(CN(C)C3)C1 (stereo not drawn) [Compound 128],≤ 10 nM
4,CN1Cc2cc(Nc3ncc(C#N)c(Nc4cccc(N=S(C)(C)=O)n4)n3)cc3c2C(C1)C(N)CC3 (stereo not drawn) [Compound 294],≤ 10 nM
5,CN1Cc2cc(Nc3ncc(C#N)c(Nc4cccc(N=S(C)(C)=O)n4)n3)cc3c2[C@](C)(CC3)C1 [Compound 54],10 to 50 nM
6,CN1Cc2cc(Nc3ncc(C#N)c(Nc4cccc(N=S(C)(C)=O)n4)n3)cc3c2C(CCC3N)C1 (stereo not drawn) [Compound 290],≤ 10 nM
7,CC(C)N1Cc2cc(Nc3ncc(C#N)c(Nc4cccc(N=S(C)(C)=O)n4)n3)cc3c2[C@@H](CCC3)C1 [Compound 12],≤ 10 nM
8,COc1ccc(Nc2nc(Nc3cc4c5c(c3)CN(C)CCC5CCC4)ncc2C#N)nc1N=S(C)(C)=O (stereo not drawn) [Compound 123],≤ 10 nM
9,CN1Cc2cc(Nc3ncc(C#N)c(Nc4cccc(N=S(C)(C)=O)n4)n3)cc3c2[C@@](C)(CCCC3)C1 [Compound 61],≤ 10 nM
10,Cc1c(Nc2ncc(C#N)c(Nc3cccc(N=S(C)(C)=O)n3)n2)cc2c3c1CCCC3CN(C)C2 (stereo not drawn) [Compound 46],≤ 10 nM
11,CN1Cc2cc(Nc3ncc(C(N)=O)c(Nc4cccc(N=S(C)(C)=O)n4)n3)cc3c2C(CCC3)C1 (stereo not drawn) [Compound 98],≤ 10 nM
12,CN1Cc2cc(Nc3ncc(C#N)c(Nc4cccc(N=S(C)(C)=O)n4)n3)cc3c2C(COCC3)C1 (stereo not drawn) [Compound 78],≤ 10 nM
13,C=Cc1cc(N=S(C)(C)=O)nc(Nc2nc(Nc3cc4c5c(c3)CC(N(C)C)CCC5CCC4)ncc2C#N)c1 (stereo not drawn) [Compound 124],≤ 10 nM
14,CN1Cc2cc(Nc3ncc(C#N)c(Nc4cccc(N=S(C)(C)=O)n4)n3)cc3c2C(C1)C1(CC3)CC1 (stereo not drawn) [Compound 29],≤ 10 nM
15,CN1Cc2cc(Nc3ncc(C#N)c(Nc4cccc(N=S(C)(C)=O)n4)n3)cc3c2C(C1)C(C)(C)CC3 (stereo not drawn) [Compound 30],≤ 10 nM
16,CN1Cc2cc(Nc3ncc(C#N)c(Nc4cccc(N=S(C)(C)=O)n4)n3)cc3c2C(CCC3O)C1 (stereo not drawn) [Compound 289],≤ 10 nM
17,CN1Cc2cc(Nc3ncc(C#N)c(Nc4nc(N=S(C)(C)=O)cc5c4CCN5)n3)cc3c2C(CCC3)C1 (stereo not drawn) [Compound 119],≤ 10 nM
18,CN1Cc2cc(Nc3ncc(C#N)c(-c4c[nH]c5c(N=S(C)(C)=O)cccc45)n3)cc3c2C(CCC3)C1 (stereo not drawn) [Compound 115],≤ 10 nM
19,CN(C)C1Cc2cc(Nc3ncc(C#N)c(Nc4cccc(N=S(C)(C)=O)n4)n3)cc3c2C1CCC3 (stereo not drawn) [Compound 90],≤ 10 nM
20,CN1Cc2cc(Nc3ncc(C#N)c(Nc4cccc(N=S(C)(C)=O)n4)n3)cc3c2C(C1)N(C)CC3 (stereo not drawn) [Compound 129],≤ 10 nM
21,CN1Cc2cc(Nc3ncc(C#N)c(Nc4nc(N=S(C)(C)=O)cc5[nH]ccc45)n3)cc3c2C(CCC3)C1 (stereo not drawn) [Compound 118],≤ 10 nM
22,CN1Cc2cc(Nc3ncc(C#N)c(Nc4cccc(N=S(C)(C)=O)n4)n3)cc3c2C(CCCCS3)C1 (stereo not drawn) [Compound 83],≤ 10 nM
